This is an account of results in US11597708B2, “Inhibitors of heat shock factors and uses thereof” (HSF Pharmaceuticals SA, priority 2016, dated 2023).

Molecules are shown by their SMILES.

Experiment in all cases: Alamar Blue viability assay
Holding throughout (type): cell-based
Background: Alamar Blue is a resazurin reagent that responds to reducing activity.

One assay relates to U-2 OS. The conditions noted are these: Homo sapiens, U2OS, Osteosarcoma, P53 WT, 96-hour exposure. The method, then:
(§1) Cultures of HeLa cells were exposed for 96 hours to different concentrations of IHSF 001, 058 and 115, and viability was assessed using an Alamar Blue assay. It is noted that this standard assay examines attached cells only. This subject will be discussed in more detail below. […] The relative cytotoxicity of the compounds appears to parallel their respective activities as inhibitors of HSF1 function (inhibition of RLuc expression in Z74 cells). We next examined the viability of different human cancer cell lines subsequent to a 96-hour exposure to compound 115 (Table 3). HSF1 was reported as being required for optimal p21 expression and for p53-mediated cell cycle arrest in response to genotoxins. Logan, I. R. et al. (2009) Nucleic Acids Res. 37: 2962-2971. […] Cell lines of different p53 status were included in the experiments in order to find out whether sensitivity to IHSF 115 was related to p53 status. […] No effect of p53 status could be discovered. It is noted that a number of additional HSF inhibitors of the present disclosure were tested and found to effectively reduce the viability of human cancer cells.

A further assay has as its system NCI-H3122. The conditions noted are these: Homo sapiens, Lung, P53 Wt, 96-hour exposure. The method, then:
as §1

The test system of another assay is NCI-H1975. The conditions noted are these: Homo sapiens, Lung, P53 Wt, 96-hour exposure. The method, then: as §1
For the next assay, the system named is BT-20. The conditions noted are these: Homo sapiens, Breast, P53 Mut, 96-hour exposure. The method, then: as §1
The next assay relates to A549. The following applies: Homo sapiens, Lung, P53 Wt, 96-hour exposure. The method, then: as §1
A further assay concerns NCI-H2228. The conditions noted are these: Homo sapiens, Lung, P53 Wt, 96-hour exposure. The protocol:
as §1

The next assay deals with THP-1. The conditions noted are these: Homo sapiens, Acute monocytic leukemia, P53 Mut, 96-hour exposure. The method, then:
as §1

The next assay deals with PC-3. The following applies: Homo sapiens, Prostate, P53 Null, 96-hour exposure. The protocol:
as §1

For another assay, the system named is SK-OV-3. The following applies: Homo sapiens, Ovarian carcinoma, P53 Mut, 96-hour exposure. The protocol: as §1

In general, EC50 refers to the concentration that produces a half-maximal response. Low values mean higher potency in that assay, high ones lower potency in that assay. With `CN(C(=O)/C=C/C1=NCCCO1)c1ncc(-c2cccnc2)s1` [IHSF 115, (E)-3-(5,6-Dihydro-4H-[1,3]oxazin-2-yl)-N-methyl-N-(5-pyridin-3-yl-thiazol-2-yl)-acrylamide], the EC50 in the assay with U-2 OS worked out at 5.2 µM; with NCI-H3122 it was 11 µM; with NCI-H1975 it was 5.1 µM; in the assay with BT-20 it was 8.2 µM; in the assay with A549, 18.8 µM; with NCI-H2228, 12.8 µM. Further, the results for the EC50 with THP-1, in the assay on PC-3 and with SK-OV-3 were 6.9 µM, 4 µM and 15 µM, respectively.
